Measurements as given in PubChem BioAssay AID1919004 (Molecular Pharmacology Branch, DTP, NCI, 2023).
Several values for one entry are separate records, joined by “and”; a condition that tells them apart may be missing. Equal entries are not always repeated.

Tested on: 883617-216-R-J1-PDC complex spheroids, growth, % test/control
Test: Anticancer human tumor 883617-216-R-J1-PDC patient-derived bladder carcinoma cell line growth inhibition [AhR]
Conditions: for viability, T/C: stronger effect = lower value
Summary of the method: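 Spheroids combined tumor cells with HUVEC endothelial cells and human MSCs as stroma. AhR antagonists were paired with standard or investigational drugs, each dosed in half-log steps down from near clinical Cmax, or from 10 microM where Cmax was unknown.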

[1] = curve of first compound, second compound 0.1 µM
[2] = curve of first compound, second compound 0.316 µM
[3] = curve of first compound, second compound 1 µM
[4] = curve of first compound, second compound 3.16 µM
[5] = curve of first compound, second compound 10 µM
[6] = second compound 0.1 µM, first compound 0.0316 µM
[7] = second compound 0.1 µM, first compound 0.1 µM
[8] = second compound 0.1 µM, first compound 0.316 µM
[9] = second compound 0.1 µM, first compound 1 µM
[10] = second compound 0.1 µM, first compound 3.16 µM
[11] = second compound 0.1 µM, first compound 10 µM
[12] = second compound 0.316 µM, first compound 0.0316 µM
[13] = second compound 0.316 µM, first compound 0.1 µM
[14] = second compound 0.316 µM, first compound 0.316 µM
[15] = second compound 0.316 µM, first compound 1 µM
[16] = second compound 0.316 µM, first compound 3.16 µM
[17] = second compound 0.316 µM, first compound 10 µM
[18] = second compound 1 µM, first compound 0.0316 µM
[19] = second compound 1 µM, first compound 0.1 µM
[20] = second compound 1 µM, first compound 0.316 µM
[21] = second compound 1 µM, first compound 1 µM
[22] = second compound 1 µM, first compound 3.16 µM
[23] = second compound 1 µM, first compound 10 µM
[24] = second compound 3.16 µM, first compound 0.0316 µM
[25] = second compound 3.16 µM, first compound 0.1 µM
[26] = second compound 3.16 µM, first compound 0.316 µM
[27] = second compound 3.16 µM, first compound 1 µM
[28] = second compound 3.16 µM, first compound 3.16 µM
[29] = second compound 3.16 µM, first compound 10 µM
[30] = second compound 10 µM, first compound 0.0316 µM
[31] = second compound 10 µM, first compound 0.1 µM
[32] = second compound 10 µM, first compound 0.316 µM
[33] = second compound 10 µM, first compound 1 µM
[34] = second compound 10 µM, first compound 3.16 µM
[35] = second compound 10 µM, first compound 10 µM
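Also: exposure lasted 7 days after dosing on day 3 of spheroid growth.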

`COc1cc(C2c3cc4c(cc3C(OC3OC5COC(C)OC5C(O)C3O)C3COC(=O)C23)OCO4)cc(OC)c1O` (centres undefined) + CC(CO)NC(=O)c1cc(-c2ccc(Cl)cc2)nn(-c2cnn(C)c2)c1=O gave an IC50 [1] greater than 10000 nM, an IC50 [2] greater than 10000 nM and an IC50 [3] greater than 10000 nM. The IC50 [4] was greater than 10000 nM, the IC50 [5] was greater than 10000 nM and the viability, T/C [6] was 75.2%. It also gave a viability, T/C [7] of 90.2%, a viability, T/C [8] of 108% and a viability, T/C [9] of 66.3%. The viability, T/C [10] was 84.1%, the viability, T/C [11] was 60.1% and the viability, T/C [12] was 63.8%. For the same compound, the viability, T/C [13] was 84.5%, the viability, T/C [14] was 85.3% and the viability, T/C [15] was 67.7%. The viability, T/C [16] was 101%, the viability, T/C [17] was 69.4% and the viability, T/C [18] was 60.3%. The viability, T/C [19] was 76.7%, the viability, T/C [20] was 90% and the viability, T/C [21] was 83.5%. The viability, T/C [22] was 84.3%, the viability, T/C [23] was 53.3% and the viability, T/C [24] was 81.1%. For the same compound, the viability, T/C [25] was 85.8%, the viability, T/C [26] was 74.3% and the viability, T/C [27] was 69.3%. The viability, T/C [28] was 65%, the viability, T/C [29] was 102% and the viability, T/C [30] was 91.7%. For the same compound, the viability, T/C [31] was 70.8%, the viability, T/C [32] was 89.6% and the viability, T/C [33] was 81.3%. It also gave a viability, T/C [34] of 53.5% and a viability, T/C [35] of 77.3%.

`CC[C@@]1(O)C(=O)OCc2c1cc1n(c2=O)Cc2cc3c(CN(C)C)c(O)ccc3nc2-1` + Cc1cncc(-c2nc(NCCc3c[nH]c4ccccc34)c3ncn(C(C)C)c3n2)c1 was tested, and the IC50 [1] was greater than 100 nM, the IC50 [2] was greater than 100 nM and the IC50 [3] was greater than 100 nM. For the same compound, the IC50 [4] was greater than 100 nM, the IC50 [5] was less than 0.316 nM and the viability, T/C (second compound 0.1 µM, first compound 0.000316 µM) was 76.2%. It also gave a viability, T/C (second compound 0.1 µM, first compound 0.001 µM) of 75.1%, a viability, T/C (second compound 0.1 µM, first compound 0.00316 µM) of 79.8% and a viability, T/C (second compound 0.1 µM, first compound 0.01 µM) of 71%. For the same compound, the viability, T/C [6] was 69.8%, the viability, T/C [7] was 74.3% and the viability, T/C (second compound 0.316 µM, first compound 0.000316 µM) was 86.3%. The viability, T/C (second compound 0.316 µM, first compound 0.001 µM) was 80.7%, the viability, T/C (second compound 0.316 µM, first compound 0.00316 µM) was 74.3% and the viability, T/C (second compound 0.316 µM, first compound 0.01 µM) was 79.4%. For the same compound, the viability, T/C [12] was 68.1%, the viability, T/C [13] was 64.7% and the viability, T/C (second compound 1 µM, first compound 0.000316 µM) was 93.5%. It also gave a viability, T/C (second compound 1 µM, first compound 0.001 µM) of 93.9%, a viability, T/C (second compound 1 µM, first compound 0.00316 µM) of 83.9% and a viability, T/C (second compound 1 µM, first compound 0.01 µM) of 85.6%. It also gave a viability, T/C [18] of 88.9%, a viability, T/C [19] of 76.7% and a viability, T/C (second compound 3.16 µM, first compound 0.000316 µM) of 96.6%. It also gave a viability, T/C (second compound 3.16 µM, first compound 0.001 µM) of 84.6%, a viability, T/C (second compound 3.16 µM, first compound 0.00316 µM) of 89.7% and a viability, T/C (second compound 3.16 µM, first compound 0.01 µM) of 91.9%. It also gave a viability, T/C [24] of 84.6%, a viability, T/C [25] of 73.1% and a viability, T/C (second compound 10 µM, first compound 0.000316 µM) of 45.7%. For the same compound, the viability, T/C (second compound 10 µM, first compound 0.001 µM) was 47.8%, the viability, T/C (second compound 10 µM, first compound 0.00316 µM) was 47.9% and the viability, T/C (second compound 10 µM, first compound 0.01 µM) was 46.8%. The viability, T/C [30] was 35.4% and the viability, T/C [31] was 32.1%.

In the case of `COc1cc(Nc2ncc3c(n2)-c2ccc(Cl)cc2C(c2c(F)cccc2OC)=NC3)ccc1C(=O)O`, the viability, T/C (compound 0.0316 µM) is reported as 88.6% and 85% and 80.8%, the viability, T/C (compound 0.1 µM) is reported as 78.9% and 73.3% and 119% and the viability, T/C (compound 0.316 µM) is reported as 75.5% and 72% and 97.8%. The viability, T/C (compound 1 µM) was 74.1% and 70.4% and 84.2%, the viability, T/C (compound 3.16 µM) was 71.2% and 71% and 109% and the viability, T/C (compound 10 µM) was 72.2% and 65.5% and 117%. It also gave an IC50 (curve of compound) greater than 10000 nM.

In the case of `NS(=O)(=O)OCC1CC(n2ccc3c(NC4CCc5ccccc54)ncnc32)CC1O` (centres undefined), the viability, T/C (compound 0.0316 µM) is reported as 154% and 163% and 90.4%, the viability, T/C (compound 0.1 µM) is reported as 209% and 200% and 81.5% and the viability, T/C (compound 0.316 µM) is reported as 214% and 242% and 83.6%. The viability, T/C (compound 1 µM) was 140% and 130% and 64%, the viability, T/C (compound 3.16 µM) was 48.6% and 34.8% and 33.6% and the viability, T/C (compound 10 µM) was 24.7% and 20.3% and 48.3%. The IC50 (curve of compound) was 3120 nM and 2450 nM and 2010 nM.

`Nc1ccccc1NC(=O)c1ccc(CNC(=O)OCc2cccnc2)cc1` + CC(CO)NC(=O)c1cc(-c2ccc(Cl)cc2)nn(-c2cnn(C)c2)c1=O showed an IC50 [1] of 2920 nM, an IC50 [2] of 4730 nM and an IC50 [3] of 3320 nM. For the same compound, the IC50 [4] was 4380 nM, the IC50 [5] was 3900 nM and the viability, T/C [6] was 79.3%. The viability, T/C [7] was 101%, the viability, T/C [8] was 90.8% and the viability, T/C [9] was 78.8%. For the same compound, the viability, T/C [10] was 48.2%, the viability, T/C [11] was 20.5% and the viability, T/C [12] was 76.8%. For the same compound, the viability, T/C [13] was 86.9%, the viability, T/C [14] was 113% and the viability, T/C [15] was 83%. The viability, T/C [16] was 68.3%, the viability, T/C [17] was 16.8% and the viability, T/C [18] was 92.8%. For the same compound, the viability, T/C [19] was 87.2%, the viability, T/C [20] was 110% and the viability, T/C [21] was 97.5%. It also gave a viability, T/C [22] of 51.4%, a viability, T/C [23] of 18.7% and a viability, T/C [24] of 73.6%. For the same compound, the viability, T/C [25] was 66.8%, the viability, T/C [26] was 88% and the viability, T/C [27] was 105%. It also gave a viability, T/C [28] of 61.2%, a viability, T/C [29] of 21.8% and a viability, T/C [30] of 110%. It also gave a viability, T/C [31] of 114%, a viability, T/C [32] of 104% and a viability, T/C [33] of 84.1%. The viability, T/C [34] was 61.1% and the viability, T/C [35] was 8.65%.

For `O=C(C=Cn1cnc(-c2cc(C(F)(F)F)cc(C(F)(F)F)c2)n1)NNc1cnccn1` + Cc1cncc(-c2nc(NCCc3c[nH]c4ccccc34)c3ncn(C(C)C)c3n2)c1, the IC50 [1] was 900 nM, the IC50 [2] was 1380 nM and the IC50 [3] was 1760 nM. For the same compound, the IC50 [4] was 1530 nM, the IC50 [5] was less than 9.49 nM and the viability, T/C (second compound 0.1 µM, first compound 0.00949 µM) was 81.5%. It also gave a viability, T/C (second compound 0.1 µM, first compound 0.03 µM) of 74.9%, a viability, T/C (second compound 0.1 µM, first compound 0.0949 µM) of 63.7% and a viability, T/C (second compound 0.1 µM, first compound 0.3 µM) of 58.1%. It also gave a viability, T/C (second compound 0.1 µM, first compound 0.949 µM) of 50.1%, a viability, T/C (second compound 0.1 µM, first compound 3 µM) of 42.5% and a viability, T/C (second compound 0.316 µM, first compound 0.00949 µM) of 88.3%. The viability, T/C (second compound 0.316 µM, first compound 0.03 µM) was 78.4%, the viability, T/C (second compound 0.316 µM, first compound 0.0949 µM) was 72.3% and the viability, T/C (second compound 0.316 µM, first compound 0.3 µM) was 58.1%. The viability, T/C (second compound 0.316 µM, first compound 0.949 µM) was 57.1%, the viability, T/C (second compound 0.316 µM, first compound 3 µM) was 42.4% and the viability, T/C (second compound 1 µM, first compound 0.00949 µM) was 83%. The viability, T/C (second compound 1 µM, first compound 0.03 µM) was 79.1%, the viability, T/C (second compound 1 µM, first compound 0.0949 µM) was 69.5% and the viability, T/C (second compound 1 µM, first compound 0.3 µM) was 61.4%. It also gave a viability, T/C (second compound 1 µM, first compound 0.949 µM) of 62%, a viability, T/C (second compound 1 µM, first compound 3 µM) of 42.7% and a viability, T/C (second compound 3.16 µM, first compound 0.00949 µM) of 93.6%. For the same compound, the viability, T/C (second compound 3.16 µM, first compound 0.03 µM) was 88.2%, the viability, T/C (second compound 3.16 µM, first compound 0.0949 µM) was 80% and the viability, T/C (second compound 3.16 µM, first compound 0.3 µM) was 67.5%. The viability, T/C (second compound 3.16 µM, first compound 0.949 µM) was 52.9%, the viability, T/C (second compound 3.16 µM, first compound 3 µM) was 45.2% and the viability, T/C (second compound 10 µM, first compound 0.00949 µM) was 49.5%. It also gave a viability, T/C (second compound 10 µM, first compound 0.03 µM) of 40.5%, a viability, T/C (second compound 10 µM, first compound 0.0949 µM) of 32.4% and a viability, T/C (second compound 10 µM, first compound 0.3 µM) of 29.7%. It also gave a viability, T/C (second compound 10 µM, first compound 0.949 µM) of 42.5% and a viability, T/C (second compound 10 µM, first compound 3 µM) of 44.2%.
